Measurements: patent publication US12343355B2, “Methods for decreasing the incidence of necrotizing enterocolitis in infants, toddlers, or children using human milk oligosaccharides” (ABBOTT LABORATORIES, priority 2010, dated 2025)

How the values were obtained:
[1] = test system: Bifidobacterium spp. (12 strains); test: Bacterial growth assay (OD600), all bifidobacteria strains tested; type: cell-based; settings: carbohydrate 1% in sMRS+cysteine
Experimental: (§1) Subsequently, the cultures are passed twice on a semi-synthetic MRS medium ([…] which is supplemented with 1% (w/v) filter-sterilized glucose as the sole carbohydrate source. […] [table] After the 2nd pass in sMRS+glucose+cysteine, the cultures are washed once with 10 mL of sterile sMRS+cysteine (no carbohydrate), resuspended in 10 ml of sterile sMRS+ cysteine (no carbohydrate) and then used as a 1% inoculum. […] Cell growth is performed in 250 uL of sMRS+cysteine covered with 50 uL of mineral oil in a Bioscreen 100-well Honeycomb plate. Cell growth is monitored by measuring optical density at 600 nm (OD600) using a Bioscreen C Automated Microbiology Growth Curve Analysis System. The plate reader is operated in discontinuous mode, with absorbance readings performed in 30-minute intervals, and preceded by 30-second shaking intervals at maximum speed. Controls consist of inoculated medium lacking carbohydrate. […] All three plates include a positive control (glucose) and negative control (no carbohydrate). The OD600 data for each carbohydrate is corrected by subtracting the OD600 of the basal media (sMRS)+cysteine from the sample plate for each probiotic. Maximum OD is determined by inspection of the corrected growth data. OD is determined by subtracting the initial corrected OD (time point 0) from the maximum corrected OD. Samples are grown in biologically independent triplicates and the resulting growth kinetic data are expressed as the mean of these replicates. For the growth curve plots, OD600 vs. time is first plotted for the bacteria grown on medium lacking carbohydrate (sMRS). For all other carbohydrates, the OD600 data is corrected by subtracting the OD600 of sMRS.

[2] = test system: B. infantis ATCC 15697; test: Bacterial growth assay (OD600); type: cell-based, Bifidobacterium infantis; settings: carbohydrate 1% in sMRS+cysteine
Experimental: as §1

[3] = test system: B. infantis M-63; test: Bacterial growth assay (OD600); type: cell-based, Bifidobacterium infantis; settings: carbohydrate 1% in sMRS+cysteine
Experimental: as §1

[4] = test system: diluted feces of infants (fecal inoculum); test: In vitro fermentation model simulating large bowel fermentation, infant fecal inoculum (pH, SCFA, fermentation rate); type: cell-based; settings: for pH change from baseline: at 3, 6, and 12 h after inoculation, compared among substrates
[5] = test system: enteric nerve cells; test: Peristalsis model using luminally perfused mouse colon
Experimental: In this Example, the effect of 2′-fucosyllactose (2′FL) or 3′-fucosyllactose (3′FL) on stimulating enteric nerve cells in the gastrointestinal tract of rodents is analyzed.
Specifically, a peristalsis model using luminally perfused mouse colon is used to test the stimulation effect of 2′FL or 3′FL on enteric nerve cells. Colon muscle is perfused with 2′FL or 3′FL, at concentrations of 1 mg/mL, 0.5 mg/mL, and 0.1 mg/mL, for 15 minutes. The frequency and amplitude of contractions of the muscle is analyzed.

[6] = test system: Caco-2 cells; test: Sucrase activity in Caco-2 cells; type: cell-based, human; settings: 72 hours, various levels
[7] = test system: HT-29 cells; test: Alkaline phosphatase activity in HT-29 cells (cell differentiation); settings: 72 hours
[8] = test system: Caco-2 cells; test: Alkaline phosphatase activity in Caco-2 cells (cell differentiation); settings: 72 hours, LNnT or 2′FL 20-2000 mg/L, 6′SL 40-4000 mg/mL
[9] = test system: B. breve ATCC 15700; test: Bacterial growth assay (OD600); type: cell-based, Bifidobacterium breve; settings: carbohydrate 1% in sMRS+cysteine
Experimental: as §1, with “The OD600 data for each carbohydrate is corrected by subtracting the OD600 of the basal media (sMRS)+cysteine from the sample plate for each probiotic.” left out, “For the growth curve plots, OD600 vs. time is first plotted for the bacteria grown on medium lacking carbohydrate (sMRS). For all other carbohydrates, the OD600 data is corrected by subtracting the OD600 of sMRS.” left out

[10] = test system: Caco-2 cells; test: Transepithelial resistance of Caco-2 cells (Ussing chambers); type: cell-based, human; settings: more mature Caco-2 cells
From the text: FIGS. 20-22 illustrate the effect of LNnT, 2′FL, and 6′SL on cell resistance (transepithelial resistance), which is a marker for epithelial barrier function, wherein a higher resistance is associated with a higher barrier function. Epithelial cell resistance or barrier function is a measure of differentiated epithelial cell function. Specifically, as the cells mature, tighter junctions between the cells are formed resulting in a stronger epithelial cell barrier. This barrier prevents the movement of large molecules, bacteria, or viruses from one side of the barrier to the other, which could improve resistance to infection, sepsis, and NEC. […] Transepithelial resistance was measured using Transwell Snapwell inserts containing the desired cell culture and were transferred to modified Ussing chambers and bathed in modified Kreb's solution at 37 C with 95% oxygen and 5% carbon dioxide. Transepithelial resistance was measured as the passive transport of ions across the monolayers.

[11] = colon muscle perfused at 1, 0.5 and 0.1 mg/mL for 15 minutes
[12] = LNnT 20-2000 mg/L, 6′SL 40-4000 mg/mL

Row | SMILES | growth / ability to ferment (OD600) [1] | growth / ability to ferment (OD600) [2] | growth / ability to ferment (OD600) [3] | fermentation rate [4] | sucrase activity per milligram of protein [6] | alkaline phosphatase activity [8] | also measured
1 | C[C@H](O)[C@@H](O)[C@@H](O)[C@H](O)C=O [L-fucose, L-(−) Fucose, reference compound] | None of the bifidobacteria are able to ferment | not able to ferment | not able to ferment |  |  |  | 
2 | CC(=O)N[C@H]1[C@H]([C@H](O)[C@H](O)CO)OC(O)(C(=O)O)C[C@@H]1O (some centres unmarked) [sialic acid, N-acetylneuraminic acid, reference compound] | None of the bifidobacteria are able to ferment | not able to ferment | not able to ferment |  |  |  | 
3 | C[C@@H]1O[C@@H](O[C@H]2[C@H](O[C@H]3[C@H](O)[C@@H](O)C(O)O[C@@H]3CO)O[C@H](CO)[C@H](O)[C@@H]2O)[C@@H](O)[C@H](O)[C@@H]1O (stereo partly drawn) [2′FL, 2′-a-L-Fucopyranosyl-D-Lactose] | Only B. infantis ATCC 15697 and B. infantis M-63 are able to ferment | able to ferment | able to ferment | about 4,872 i·tg/g of dry matter/hour | trend toward sucrase activity | trend toward increased alkaline phosphatase activity | pH change from baseline [4]: greatest; amplitude of contraction [5, 11]: reduced consistently and in a dose response fashion; frequency of contraction [5, 11]: reduced consistently and in a dose response fashion; stimulation of nerve cells ([5]; without involving gut microbiota and/or their metabolites): direct stimulation of nerve cells; alkaline phosphatase activity per milligram of protein ([7]; at the high dose (2000 mg/L)): significant increase in alkaline phosphatase activity
4 | CC(=O)N[C@H]1C(O)O[C@H](CO)[C@@H](O)[C@@H]1O (stereo partly drawn) [NAG, N-acetyl-D-glucosamine, reference compound] | Only B. breve ATCC 15700 is able to ferment |  |  |  |  |  | growth / ability to ferment (OD600) [9]: able to ferment
5 | CC(=O)N[C@H]1[C@H]([C@H](O)[C@H](O)CO)O[C@@](O[C@H]2[C@@H](O)[C@@H](CO)O[C@@H](O[C@H]3[C@H](O)[C@@H](O)C(O)O[C@@H]3CO)[C@@H]2O)(C(=O)O)C[C@@H]1O (some centres unmarked) [3′SL, 3′-sialyllactose] | Only B. infantis ATCC 15697 and B. infantis M-63 are able to ferment | able to ferment | able to ferment |  |  |  | 
6 | CC(=O)N[C@H]1[C@H](O[C@H]2[C@@H](O)[C@@H](CO)O[C@@H](O[C@H]3[C@H](O)[C@@H](O)C(O)O[C@@H]3CO)[C@@H]2O)O[C@H](CO)[C@@H](O[C@@H]2O[C@H](CO)[C@H](O)[C@H](O)[C@H]2O)[C@@H]1O (mixture of isomers) [LNnT, Lacto-N-neotetraose] |  | grow well | grow well | about 4,488 i·tg/g of dry matter/hour | no apparent effect | trend toward an increase | pH change from baseline [4]: greatest; growth / ability to ferment (OD600) [9]: grow well; cell resistance (transepithelial resistance) [10]: positive effect on cell resistance; alkaline phosphatase activity per milligram of protein [7, 12]: trend toward an increase
7 | CC(=O)N[C@H]1C([C@H](O)[C@H](O)CO)O[C@@](OCC2O[C@@H](O[C@@H]3C(CO)OC(O)C(O)[C@H]3O)C(O)[C@@H](O)[C@H]2O)(C(=O)[O-])C[C@H]1O.[Na+] (some centres unmarked) [6′SL, a-(2-6′)-N-Acetylneuraminyl-lactose sodium salt] | Only B. infantis ATCC 15697 and B. infantis M-63 are able to ferment | able to ferment | able to ferment | about 1,809 i·tg/g of dry matter/hour | no apparent effect | no apparent effect | total SCFA production ([4]; 12 h of fermentation): greater (P<0.05) for the 6′SL and GOS substrates compared to 2′FL; total SCFA production ([4]; after 3 and 6 h of fermentation): lower (P<0.05) with 6′SL compared to GOS; alkaline phosphatase activity per milligram of protein [7, 12]: no apparent effect
8 | O=C(CO)[C@@H](O)[C@H](O)[C@H](O)CO [fructose, D-Fructose] | majority of bifidobacteria is able to ferment |  |  |  |  |  | 
